From US20260354380A1, “PYRAZOLO PESTICIDAL COMPOUNDS” (BASF SE, priority 2022, published 2026)

Tests used:
Assay type in all cases: in vivo
[1] = test system: Spodoptera eridania; assay: Action on Southern Armyworm (Spodoptera eridania), 2nd Instar Larvae; conditions: 300 ppm; 2nd instar larvae; 4 days after treatment
How it was run: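 2nd-instar Spodoptera eridania larvae (about 10–11 per pot) confined on sprayed, dried Lima bean plants (1st true leaf stage) in sealed bags. Spray solutions: acetone/water 1:1 plus 0.01% surfactant. Held 4 days near 25 °C, 20–40% RH; assessed for mortality and feeding reduction against untreated controls.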

[2] = test system: Anthonomus grandis; assay: Action on Boll Weevil (Anthonomus grandis); conditions: 800 ppm; egg and larval mortality; 5 days
How it was run: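 Diet in 96-well plates, seeded with 5-10 A. grandis eggs, received a spray of formulated compound (25% DMSO in water) at a range of concentrations, duplicated. Mortality of eggs and larvae was judged by eye after 5 days at about 25±1 °C, 75±5% relative humidity.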

[3] = test system: Heliothis virescens; assay: Action on Tobacco Budworm (Heliothis virescens); conditions: 800 ppm; egg and larval mortality; 5 days
How it was run: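 Eggs (15-25 per well) on diet were held 5 days at about 28±1 °C, 80±5% RH, then egg and larval mortality was scored by eye. Beforehand the diet had been sprayed with compound dilutions formulated in water/DMSO 75:25 v/v, in two replicates.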

[4] = test system: Plutella xylostella; assay: Action on Diamond Back Moth (Plutella xylostella), microtiter plates, insect diet, eggs; conditions: 800 ppm; egg and larval mortality; 5 days
Procedure: Example B8: Action on Diamond Back Moth (Plutella xylostella)
For evaluating control of diamond back moth (Plutella xylostella) the test unit consisted of 96-well-microtiter plates containing an insect diet and 15-25 P. xylostella eggs. The compounds or mixtures were formulated using a solution containing 75% water and 25% DMSO. Different concentrations of formulated compounds or mixtures were sprayed onto the insect diet at 5 μl, using a custom-built micro atomizer, at two replications. For experimental mixtures in these tests identical volumes of both mixing partners at the desired concentrations respectively, were mixed together. After application, microtiter plates were incubated at 28±1 °C, 80±5% RH for 5 days. Egg and larval mortality was then visually assessed.

[5] = test system: Aedes aegypti; assay: whole plant or invertebrate; conditions: 800 ppm; larvae; 2 days
How it was run: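 Visual larval mortality was assessed 2 days after treatment (28±1 °C, 80±5% RH). Formulations of compounds or mixtures (75% water/25% DMSO) were applied by micro-atomizer onto diet of 5-15 newly hatched larvae per water-filled well, two replicates per concentration.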

Compound | mortality in comparison with untreated controls [1] | mortality in comparison with untreated controls [2] | mortality in comparison with untreated controls [3] | mortality in comparison with untreated controls [4] | mortality in comparison with untreated controls [5]
Cc1ccc(C(C)C)c(N2C(=O)CSC2=NC(=O)Nc2ccc(-n3nc(C)c(NC(=O)c4ccc(Cl)c(F)c4)c3C)cc2)c1 [Example C-109] | at least 75% | at least 75% | at least 75% | at least 75% | at least 50%
Cc1ccc(C(C)C)c(N2C(=O)CSC2=NC(=O)Nc2ccc(-n3nc(C)c(NC(=O)c4cc(F)c(F)cc4F)c3C)cc2)c1 [Example C-120] | at least 75% | at least 75% | at least 75% | at least 75% | at least 50%
Cc1ccc(C(C)C)c(N2C(=O)CSC2=NC(=O)Nc2ccc(-n3nc(C)c(NC(=O)c4ccc(Cl)cc4)c3C)cc2)c1 [Example C-111] | at least 75% | at least 75% | at least 75% | at least 75% | at least 50%
Cc1ccc(C(C)C)c(N2C(=O)CS/C2=N\C(=O)Nc2c(C)cc(-n3nc(C)c(NC(=O)c4ccc(OC(F)(F)F)cc4)c3C)cc2Cl)c1 [Example C-105] | at least 75% | at least 75% | at least 75% | at least 75% | at least 50%
Cc1ccc(C(C)C)c(N2C(=O)CSC2=NC(=O)Nc2ccc(-n3nc(C)c(NC(=O)c4ccc(Cl)c(Cl)c4)c3C)cc2)c1 [Example C-115] | at least 75% | at least 75% | at least 75% | at least 75% | at least 50%
Cc1ccc(C(C)C)c(N2C(=O)CSC2=NC(=O)Nc2ccc(-n3nc(C)c(NC(=O)c4ccc(F)cc4)c3C)cc2)c1 [Example C-112] | at least 75% | at least 75% | at least 75% | at least 75% | at least 50%
Cc1ccc(C(C)C)c(N2C(=O)CS/C2=N\C(=O)Nc2ccc(-n3cc(NC(=O)c4ccc(Cl)cc4)c(C)n3)cc2)c1 [Example C-29] | at least 75% | at least 75% | at least 75% | at least 75% | at least 50%
Cc1ccc(C(C)C)c(N2C(=O)CS/C2=N\C(=O)Nc2cc(Cl)c(-n3nc(C)c(NC(=O)c4ccc(OC(F)(F)F)cc4)c3C)cc2C)c1 [Example C-98] | at least 75% | at least 75% | at least 75% | at least 75% | at least 50%
Cc1ccc(C(C)C)c(N2C(=O)CSC2=NC(=O)Nc2ccc(-n3nc(C)c(NC(=O)c4ccc(Cl)cc4F)c3C)cc2)c1 [Example C-110] | at least 75% | at least 75% | at least 75% | at least 75% | at least 50%
Cc1ccc(C(C)C)c(N2C(=O)CSC2=NC(=O)Nc2ccc(-n3nc(C)c(NC(=O)c4ccc(C#N)c(F)c4)c3C)cc2)c1 [Example C-108] | at least 75% | at least 75% | at least 75% | at least 75% | at least 50%
Cc1ccc(C(C)C)c(N2C(=O)CS/C2=N\C(=O)Nc2ccc(-n3nc(C)c(NC(=O)c4ccc(OC(F)(F)F)cc4)c3N)cc2)c1 [Example C-101] | at least 75% | at least 75% | at least 75% | at least 75% | at least 50%
Cc1nn(-c2ccc(NC(=O)NC(=S)Nc3ccccc3C(C)C)cc2)cc1NC(=O)c1ccc(OC(F)(F)F)cc1 [Example C-126] | at least 75% | at least 75% | at least 75% | at least 75% | at least 50%
Cc1ccc(C(C)C)c(N2C(=O)CS/C2=N\C(=O)Nc2ccc(-n3nc(C)c(NC(=O)c4ccc(OC(F)(F)F)cc4)c3NCC3OCCO3)cc2)c1 [Example C-100] | at least 75% | at least 75% | at least 75% | at least 75% | at least 50%
Cc1ccc(C(C)C)c(N2C(=O)CSC2=NC(=O)Nc2ccc(-n3nc(C)c(NC(=O)c4ccc(C#N)cc4F)c3C)cc2)c1 [Example C-107] | at least 75% | at least 75% | at least 75% | at least 75% | at least 50%
Cc1ccc(C(C)C)c(N2C(=O)CS/C2=N\C(=O)Nc2ccc(-n3nc(C)c(NC(=O)c4ccc(Cl)cc4F)c3C)cc2Cl)c1 [Example C-106] | at least 75% | at least 75% | at least 75% | at least 75% | at least 50%
Cc1ccc(C(C)C)c(N2C(=O)CSC2=NC(=O)Nc2ccc(-n3nc(C)c(NC(=O)c4ccc(OC(F)(F)F)cc4)c3C)c(Cl)c2)c1 [Example C-45] | at least 75% | at least 75% | at least 75% | at least 75% | at least 50%
Cc1ccc(C(C)C)c(N2C(=O)CS/C2=N\C(=O)Nc2ccc(-n3nc(C)c(NC(=O)c4ccc(Cl)c(Cl)c4)c3C)cc2Cl)c1 [Example C-102] | at least 75% | at least 75% | at least 75% | at least 75% | at least 50%
Cc1ccc(C(C)C)c(N2C(=O)CSC2=NC(=O)Nc2ccc(-n3nc(C)c(NC(=O)c4ccc(Br)cc4)c3C)cc2)c1 [Example C-116] | at least 75% | at least 75% | at least 75% | at least 75% | at least 50%
